This assay concerns NZB×NZW F1 mice. Kind of assay: mIL-2/CD25 and prednisolone combination in NZB×NZW mice. It counts as in vivo, mouse. As for the experimental part: The effect of mIL-2/CD25 on Tregs was also assessed in the spleen at completion of this study (after 14 weeks of treatment).
At completion of study, one kidney from each mouse was collected in RNA Later and then homogenized in mRNA Catcher Lysis Buffer with a Tissue Lyser. mRNA was purified using mRNA Catcher PLUS according to the manufacturer's protocol (Invitrogen). cDNA was synthesized using SuperScript II with random hexamer primers. PCR was performed with SYBR Green Master Mix (Invitrogen). Relative quantification analysis was determined using the 2-ΔΔCT method using cyclophilin (PPIA) as the housekeeping gene. Expression of inflammatory cytokine and leukocyte surface receptors were analyzed.

Experimental findings from patent US20240325495A1, “FUSION PROTEINS FOR THE TREATMENT OF DISEASE” (Bristol-Myers Squibb Company, priority 2020, published 2024) are described below.

Molecules are shown by their SMILES.

Take `C[C@]12C=CC(=O)C=C1CC[C@@H]1[C@@H]2[C@@H](O)C[C@@]2(C)[C@H]1CC[C@]2(O)C(=O)CO` [prednisolone, Prednisolone]: the “percentage of Tregs and CD25 MFI on Tregs in the spleen” value (after 14 weeks of treatment) was “did not alter”. Besides, the “proteinuria levels and anti-dsDNA titers” value (prednisolone 1 mg/kg p.o. 3×/week, mIL-2/CD25 0.1 mg/kg s.c. 2×/week, or both, 14 weeks) is listed as “partial protection”.
